Results: patent US9409952B2, “Peptide-compound cyclization method” (Chugai Seiyaku Kabushiki Kaisha, priority 2011, dated 2016)
Where two headings read alike, the source gives them in different places. Starred links: 1 amine or outer side, 2 acyl side, 3 side chain; linkers in the order of their positions; H or OH if unused. Non-standard residues stand in square brackets, D forms with d. Residues, ends and D or L forms follow the SMILES beside them. *: point of attachment. Phe(4-CF3) = N[C@@H](Cc1ccc(C(F)(F)F)cc1)C(=O)O; NMePhe(3-Cl) = CN[C@@H](Cc1cccc(Cl)c1)C(=O)O; NMeF = CN[C@@H](Cc1ccccc1)C(=O)O; NMeGABA = CN(CCCC(=O)[*:2])[*:1]; NMeI = CC[C@H](C)[C@H](NC)C(=O)O; NMeβAla = CN(CCC(=O)[*:2])[*:1]; NMeL = CN[C@@H](CC(C)C)C(=O)O; NMeA = CN[C@@H](C)C(=O)O; dNMeA = CN[C@H](C)C(=O)O; β3hA = C[C@H](N)CC(=O)O; Sar = CNCC(=O)O; tBu = CC(C)(C)*

Key:
[1] = Metabolic stability in human hepatic microsome; assay type: in vitro ADME; settings: microsomes
[2] = PAMPA (parallel artificial membrane permeability assay); assay type: in vitro ADME; settings: PAMPA
Procedure, shortened: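 Artificial membrane was 10% (w/v) egg lecithin plus 0.5% (w/v) cholesterol in dodecane on a PVDF filter. A 10 mM DMSO stock was added at 0.5% (v/v) to donor buffer (50 mM MOPSO, pH 6.5, 5.0% glycocholic acid). After 18 h at 37 °C, LC/MS or LC/UV gave donor and acceptor levels for Pe.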

[3] = pH 7.4, human hepatic microsome, NADPH(+), read-out: CL NADPH(+)
[4] = membrane permeation rate (Pe), 50 mM MOPSO buffer pH 6.5 with 5.0% glycocholic acid, 37° C., 18 hours, read-out: iPAMPA Pe

| microsomal CLint at 1 uM ([1]; human, pH 7.4, CL NADPH(+)) | Papp at 18 hours, 50 µM ([2]; pH 6.5) | Compound | microsomal CLint at 1 uM [1, 3] | Papp at 18 hours, 50 µM [2, 4] |
| --- | --- | --- | --- | --- |
| – | – | CC(C)C[C@H]1C(=O)N[C@@H](COC(C)(C)C)C(=O)N[C@@H](C)CC(=O)N[C@H](C)C(=O)N(C)[C@@H](C)C(=O)N(C)[C@@H](Cc2ccccc2)C(=O)N(C)[C@@H](C)C(=O)N[C@@H]([C@@H](C)O)C(=O)N(C)[C@@H](C)C(=O)N1C [DP-786] (cyclo([NMeA][NMeF][NMeA]T[NMeA][NMeL]S(tBu)[β3hA][dA])) | 14 µL/min/mg | 5.9 ×10⁻⁶ cm/s |
| – | – | CC(C)C[C@H]1C(=O)N[C@@H](COC(C)(C)C)C(=O)N[C@@H](C)CC(=O)N[C@H](C)C(=O)N(C)[C@@H](C)C(=O)N(C)[C@@H](Cc2ccccc2)C(=O)N(C)[C@@H](CC(C)C)C(=O)N[C@@H]([C@@H](C)O)C(=O)N(C)[C@@H](C)C(=O)N1C [DP-787] (cyclo([NMeA][NMeF][NMeL]T[NMeA][NMeL]S(tBu)[β3hA][dA])) | 33 µL/min/mg | 29 ×10⁻⁶ cm/s |
| – | – | CC(C)C[C@H]1C(=O)N(C)[C@@H](Cc2ccccc2)C(=O)N(C)[C@@H](CC(C)C)C(=O)N[C@@H](C)CC(=O)N[C@H](C(C)C)C(=O)N[C@@H](C)C(=O)N[C@@H]([C@@H](C)O)C(=O)N(C)[C@@H](C)C(=O)N[C@@H](Cc2ccccc2)C(=O)N1C [DP-788] (cyclo(AT[NMeA]F[NMeL][NMeF][NMeL][β3hA][dV])) | 158 µL/min/mg | 49 ×10⁻⁶ cm/s |
| – | – | CC[C@H](C)[C@H]1C(=O)N[C@@H](C)CC(=O)N(C)[C@H](C)C(=O)N(C)[C@@H](Cc2ccccc2)C(=O)N(C)[C@@H](CC(C)C)C(=O)N[C@@H]([C@@H](C)O)C(=O)N(C)CC(=O)N[C@@H](COC(C)(C)C)C(=O)N(C)[C@@H](CC(C)C)C(=O)N1C [DP-789] (cyclo([NMeF][NMeL]T[Sar]S(tBu)[NMeL][NMeI][β3hA][dNMeA])) | 113 µL/min/mg | 35 ×10⁻⁶ cm/s |
| – | – | CC(C)C[C@@H]1NC(=O)[C@@H](C(C)C)NC(=O)C[C@H](C)NC(=O)[C@H](CC(C)C)N(C)C(=O)[C@H](Cc2ccccc2)N(C)C(=O)[C@H](CC(C)C)N(C)C(=O)[C@H](Cc2ccc(C(F)(F)F)cc2)NC(=O)[C@H](C)N(C)C(=O)[C@H]([C@@H](C)O)NC1=O [DP-790] (cyclo(LT[NMeA][Phe(4-CF3)][NMeL][NMeF][NMeL][β3hA][dV])) | 40 µL/min/mg | 56 ×10⁻⁶ cm/s |
| – | – | CC(C)C[C@@H]1NC(=O)[C@H](Cc2ccccc2)N(C)C(=O)[C@H](C)N(C)C(=O)C[C@H](C)NC(=O)[C@H]([C@@H](C)O)NC(=O)[C@H](CC(C)C)N(C)C(=O)[C@H](Cc2ccccc2)NC(=O)[C@H](CC(C)C)N(C)C(=O)[C@H](CC(C)C)N(C)C1=O [DP-791] (cyclo(F[NMeL]T[β3hA][NMeA][NMeF]L[NMeL][NMeL])) | 794 µL/min/mg | 41 ×10⁻⁶ cm/s |
| – | – | CC(C)C[C@@H]1NC(=O)[C@@H](C(C)C)NC(=O)C[C@H](C)NC(=O)[C@H](CC(C)C)N(C)C(=O)[C@H](Cc2cccc(Cl)c2)N(C)C(=O)[C@H](CC(C)C)N(C)C(=O)[C@H](Cc2ccc(C(F)(F)F)cc2)NC(=O)[C@H](C)N(C)C(=O)[C@H]([C@@H](C)O)NC1=O [DP-792] (cyclo(LT[NMeA][Phe(4-CF3)][NMeL][NMePhe(3-Cl)][NMeL][β3hA][dV])) | 16 µL/min/mg | 33 ×10⁻⁶ cm/s |
| – | – | CC(C)C[C@@H]1NC(=O)[C@H](Cc2ccccc2)N(C)C(=O)[C@H](CC(C)C)N(C)C(=O)[C@@H](C)N(C)C(=O)C[C@H](C)NC(=O)[C@H](CC(C)C)N(C)C(=O)[C@H](Cc2ccccc2)N(C)C(=O)[C@H]([C@@H](C)O)NC(=O)[C@H](Cc2ccccc2)N(C)C1=O [DP-793] (cyclo(L[NMeF]T[NMeF][NMeL][β3hA][dNMeA][NMeL][NMeF])) | 218 µL/min/mg | 53 ×10⁻⁶ cm/s |
| – | – | CC(C)C[C@H]1C(=O)NCC(=O)N[C@@H](C)CC(=O)N(C)CCC(=O)N[C@@H]([C@@H](C)O)C(=O)N(C)[C@@H](C)C(=O)N[C@@H](COC(C)(C)C)C(=O)N(C)[C@@H](Cc2ccccc2)C(=O)N1C [DP-794] (cyclo(G[β3hA][NMeβAla]T[NMeA]S(tBu)[NMeF][NMeL])) | 43 µL/min/mg | 3.7 ×10⁻⁶ cm/s |
| – | – | CC(C)C[C@H]1C(=O)N(C)[C@@H](CC(C)C)C(=O)N[C@@H](C)CC(=O)N(C)CCCC(=O)N(C)[C@@H](Cc2ccccc2)C(=O)N[C@@H]([C@@H](C)O)C(=O)N(C)CC(=O)N[C@@H](COC(C)(C)C)C(=O)N1C [DP-795] (cyclo([NMeF]T[Sar]S(tBu)[NMeL][NMeL][β3hA][NMeGABA])) | 143 µL/min/mg | 19 ×10⁻⁶ cm/s |
| – | – | CC(C)C[C@H]1C(=O)N(C)[C@@H](Cc2ccccc2)C(=O)N[C@@H](C)CC(=O)N[C@H](C(C)C)C(=O)N[C@@H](C)C(=O)N[C@@H]([C@@H](C)O)C(=O)N(C)[C@@H](C)C(=O)N[C@@H](Cc2ccccc2)C(=O)N1C [DP-796] (cyclo(AT[NMeA]F[NMeL][NMeF][β3hA][dV])) | 66 µL/min/mg | 20 ×10⁻⁶ cm/s |
| – | – | CC(C)C[C@H]1C(=O)N[C@@H](C)CC(=O)N(C)[C@H](C)C(=O)N(C)[C@@H](Cc2ccccc2)C(=O)N(C)[C@@H](CC(C)C)C(=O)N[C@@H]([C@@H](C)O)C(=O)N(C)CC(=O)N[C@@H](COC(C)(C)C)C(=O)N1C [DP-797] (cyclo([NMeF][NMeL]T[Sar]S(tBu)[NMeL][β3hA][dNMeA])) | 91 µL/min/mg | 26 ×10⁻⁶ cm/s |
| – | – | CC(C)C[C@@H]1NC(=O)[C@H](C)NC(=O)C[C@H](C)NC(=O)[C@H](Cc2ccccc2)N(C)C(=O)[C@H](CC(C)C)N(C)C(=O)[C@H](C)NC(=O)[C@H](Cc2ccccc2)N(C)C(=O)[C@H](CC(C)C)N(C)C1=O [DP-798] (cyclo(AL[NMeL][NMeF]A[NMeL][NMeF][β3hA])) | 1540 µL/min/mg | 69 ×10⁻⁶ cm/s |
| – | – | CC[C@H](C)[C@H]1C(=O)N[C@@H](C)CC(=O)N(C)[C@H](C)C(=O)N(C)[C@@H](Cc2cccc(Cl)c2)C(=O)N(C)[C@@H](CC(C)C)C(=O)N[C@@H]([C@@H](C)O)C(=O)N(C)CC(=O)N[C@@H](COC(C)(C)C)C(=O)N(C)[C@@H](CC(C)C)C(=O)N1C [DP-799] (cyclo([NMeI][β3hA][dNMeA][NMePhe(3-Cl)][NMeL]T[Sar]S(tBu)[NMeL])) | 222 µL/min/mg | 32 ×10⁻⁶ cm/s |
| – | – | CC[C@H](C)[C@H]1C(=O)N[C@@H](C)CC(=O)N(C)[C@H](C)C(=O)N(C)[C@@H](CC(C)C)C(=O)N(C)[C@@H](CC(C)C)C(=O)N[C@@H]([C@@H](C)O)C(=O)N(C)CC(=O)N[C@@H](COC(C)(C)C)C(=O)N(C)[C@@H](CC(C)C)C(=O)N1C [DP-800] (cyclo([NMeI][β3hA][dNMeA][NMeL][NMeL]T[Sar]S(tBu)[NMeL])) | 58 µL/min/mg | 25 ×10⁻⁶ cm/s |
| – | – | CC(C)C[C@H]1C(=O)N[C@@H](COC(C)(C)C)C(=O)N[C@@H](C)CC(=O)N[C@H](C(C)C)C(=O)N(C)[C@@H](Cc2cccc(Cl)c2)C(=O)N(C)[C@@H](C)C(=O)N(C)[C@@H](CC(C)C)C(=O)N[C@@H]([C@@H](C)O)C(=O)N(C)[C@@H](C)C(=O)N1C [DP-801] (cyclo([NMeA][NMeL]S(tBu)[β3hA][dV][NMePhe(3-Cl)][NMeA][NMeL]T)) | 133 µL/min/mg | 60 ×10⁻⁶ cm/s |
| – | – | CC(C)C[C@H]1C(=O)N(C)[C@@H](C)C(=O)N(C)[C@@H](CC(C)C)C(=O)N[C@@H]([C@@H](C)O)C(=O)N(C)[C@@H](C)C(=O)N(C)[C@@H](CC(C)C)C(=O)N[C@@H](COC(C)(C)C)C(=O)N[C@@H](C)CC(=O)N[C@H](C(C)C)C(=O)N1C [DP-802] (cyclo([NMeA][NMeL]S(tBu)[β3hA][dV][NMeL][NMeA][NMeL]T)) | 77 µL/min/mg | 29 ×10⁻⁶ cm/s |
| – | – | CC[C@H](C)[C@H]1C(=O)N[C@@H](COC(C)(C)C)C(=O)N[C@@H](C)CC(=O)N(C)[C@@H](C)C(=O)N(C)[C@@H](Cc2cccc(Cl)c2)C(=O)N(C)CC(=O)N(C)[C@@H](CC(C)C)C(=O)N[C@@H]([C@@H](C)O)C(=O)N(C)[C@@H](C)C(=O)N(C)[C@@H](CC(C)C)C(=O)N1C [DP-803] (cyclo([NMeA][NMeL][NMeI]S(tBu)[β3hA][NMeA][NMePhe(3-Cl)][Sar][NMeL]T)) | 85 µL/min/mg | 28 ×10⁻⁶ cm/s |
| – | – | CC[C@H](C)[C@H]1C(=O)N[C@@H](COC(C)(C)C)C(=O)N[C@@H](C)CC(=O)N(C)[C@@H](C)C(=O)N(C)[C@@H](CC(C)C)C(=O)N(C)CC(=O)N(C)[C@@H](CC(C)C)C(=O)N[C@@H]([C@@H](C)O)C(=O)N(C)[C@@H](C)C(=O)N(C)[C@@H](CC(C)C)C(=O)N1C [DP-804] (cyclo([NMeA][NMeL][NMeI]S(tBu)[β3hA][NMeA][NMeL][Sar][NMeL]T)) | 40 µL/min/mg | 29 ×10⁻⁶ cm/s |
| – | – | CC[C@H](C)[C@@H]1NC(=O)[C@H](CC(C)C)N(C)C(=O)[C@H](C)NC(=O)CN(C)C(=O)[C@H](Cc2ccc(C(F)(F)F)cc2)NC(=O)[C@H]([C@@H](C)O)NC(=O)[C@H](CC(C)C)N(C)C(=O)CCN(C)C(=O)C[C@H](C)NC(=O)[C@H](CC(C)C)N(C)C(=O)[C@H](CC(C)C)N(C)C1=O [DP-805] (cyclo(A[NMeL]I[NMeL][NMeL][β3hA][NMeβAla][NMeL]T[Phe(4-CF3)][Sar])) | 169 µL/min/mg | 41 ×10⁻⁶ cm/s |
| – | – | CC[C@H](C)[C@@H]1NC(=O)[C@H](CC(C)C)N(C)C(=O)[C@H](C)NC(=O)CN(C)C(=O)[C@H](CC(C)C)NC(=O)[C@H]([C@@H](C)O)NC(=O)[C@H](CC(C)C)N(C)C(=O)CCN(C)C(=O)C[C@H](C)NC(=O)[C@H](CC(C)C)N(C)C(=O)[C@H](CC(C)C)N(C)C1=O [DP-806] (cyclo(A[NMeL]I[NMeL][NMeL][β3hA][NMeβAla][NMeL]TL[Sar])) | 88 µL/min/mg | 27 ×10⁻⁶ cm/s |
| 81 µL/min/mg | 15 ×10⁻⁶ cm/s | CC[C@H](C)[C@@H]1NC(=O)[C@H](C)NC(=O)C[C@H](C)NC(=O)[C@H](CC(C)C)NC(=O)[C@H](CC(C)C)NC(=O)[C@H](C(C)C)NC(=O)[C@H](C)N(C)C(=O)[C@H](Cc2ccc(C(F)(F)F)cc2)NC(=O)CNC(=O)[C@H]([C@@H](C)O)NC(=O)[C@H](CC(C)C)N(C)C(=O)[C@@H]2CCCN2C1=O [DP-807] (cyclo(AIP[NMeL]TG[Phe(4-CF3)][NMeA]VLL[β3hA])) | – | – |
